Experimental data reported in patent publication US8575200B2, “Pyridin-2-yl derivatives as immunomodulating agents” (Actelion Pharmaceuticals Ltd, priority 2008, dated 2013).
Marks after values point to notes of the source that are not given here.

Test system: circulating lymphocytes
Experiment: Assessment of in vivo efficacy: circulating lymphocytes after oral administration
Parameters: species or system normotensive male Wistar rats
Conditions: 3 h after administration; oral 10 mg/kg, male Wistar rats, compared to vehicle group
Procedure: The efficacy of the compounds of Formula (I) is assessed by measuring the circulating lymphocytes after oral administration of 3 to 30 mg/kg of a compound of Formula (I) to normotensive male Wistar rats. The animals are housed in climate-controlled conditions with a 12 h-light/dark cycle, and have free access to normal rat chow and drinking water. Blood is collected before and 3, 6 and 24 h after drug administration. Full blood is subjected to hematology using Advia Hematology system (Bayer Diagnostics, Zürich, Switzerland).
All data are presented as mean±SEM. Statistical analyses are performed by analysis of variance (ANOVA) using Statistica (StatSoft) and the Student-Newman-Keuls procedure for multiple comparisons. The null hypothesis is rejected when p<0.05.
Lymphocyte counts 6 h after oral administration have been measured for 7 of the exemplified compounds (Table 2) and are in the range of −35% to −74% with an average of −64%.

| Structure (SMILES) | Lymphocyte counts [%*] |
| --- | --- |
| CCc1cc(-c2noc(-c3cc(C)c(CC(C)C)cn3)n2)cc(C)c1OC(CO)CO [Example 55, 2-{2-Ethyl-4-[5-(5-isobutyl-4-methyl-pyridin-2-yl)-[1,2,4]oxadiazol-3-yl]-6-methyl-phenoxy}-propane-1,3-diol] | −65 |

Same assay, conditions: 6 h after oral administration of 10 mg/kg to male Wistar rats, compared to vehicle group

| Structure (SMILES) | Lymphocyte counts [%] |
| --- | --- |
| CCc1cc(-c2noc(-c3cc(C)c(CC(C)C)cn3)n2)cc(C)c1OC[C@@H](O)CNC(=O)CO [Example 36, N—((S)-3-{2-ethyl-4-[5-(5-isobutyl-4-methyl-pyridin-2-yl)-[1,2,4]oxadiazol-3-yl]-6-methyl-phenoxy}-2-hydroxy-propyl)-2-hydroxy-acetamide] | −74 |
| CCc1cc(-c2noc(-c3cc(C)cc(CC(C)C)n3)n2)cc(C)c1OC[C@@H](O)CNC(=O)CO [Example 1, N—((S)-3-{2-Ethyl-4-[5-(6-isobutyl-4-methyl-pyridin-2-yl)-[1,2,4]oxadiazol-3-yl]-6-methyl-phenoxy}-2-hydroxy-propyl)-2-hydroxy-acetamide] | −74 |
| CCc1cc(-c2noc(-c3cc(C)c(CC(C)C)cn3)n2)cc(C)c1OC[C@@H](O)CO [Example 34, (S)-3-{2-ethyl-4-[5-(5-isobutyl-4-methyl-pyridin-2-yl)-[1,2,4]oxadiazol-3-yl]-6-methyl-phenoxy}-propane-1,2-diol] | −70 |
| CCc1cc(-c2noc(-c3cc(OC)cc(CC(C)C)n3)n2)cc(C)c1OC[C@@H](O)CNC(=O)CO [Example 17, N—((S)-3-{2-ethyl-4-[5-(6-isobutyl-4-methoxy-pyridin-2-yl)-[1,2,4]oxadiazol-3-yl]-6-methyl-phenoxy}-2-hydroxy-propyl)-2-hydroxy-acetamide] | −66 |
| CCc1cc(-c2noc(-c3cc(CC(C)C)cc(C)n3)n2)cc(C)c1OC[C@@H](O)CNC(=O)CO [Example 5, N—((S)-3-{2-Ethyl-4-[5-(4-isobutyl-6-methyl-pyridin-2-yl)-[1,2,4]oxadiazol-3-yl]-6-methyl-phenoxy}-2-hydroxy-propyl)-2-hydroxy-acetamide] | −67 |
| CCc1cc(-c2noc(-c3cc(C)c(CC(C)C)cn3)n2)cc(C)c1CCC(=O)NCCC(=O)O [Example 40, 3-(3-{2-Ethyl-4-[5-(5-isobutyl-4-methyl-pyridin-2-yl)-[1,2,4]oxadiazol-3-yl]-6-methyl-phenyl}-propionylamino)-propionic acid] | −35 |

Biological target: recombinant human S1P1 receptor (Homo sapiens, UniProt P21453)
Sequence (P21453 whole entry): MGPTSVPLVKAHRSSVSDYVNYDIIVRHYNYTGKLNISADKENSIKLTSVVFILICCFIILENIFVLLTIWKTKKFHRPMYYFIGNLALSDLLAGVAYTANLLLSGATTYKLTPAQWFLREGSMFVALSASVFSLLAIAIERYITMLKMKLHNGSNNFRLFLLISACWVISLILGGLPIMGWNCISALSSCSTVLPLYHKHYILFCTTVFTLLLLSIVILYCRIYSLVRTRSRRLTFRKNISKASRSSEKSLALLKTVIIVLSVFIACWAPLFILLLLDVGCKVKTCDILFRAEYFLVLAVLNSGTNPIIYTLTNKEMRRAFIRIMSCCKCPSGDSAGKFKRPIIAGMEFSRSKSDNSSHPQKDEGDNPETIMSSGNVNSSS
Experiment: GTPγS assay to determine EC50 values
Assay type: biochemical
Conditions: 35S-GTPγS binding, membrane preparations of CHO cells expressing recombinant human S1P1 receptor, agonistic activity
Procedure: GTPγS binding assays are performed in 96 well microtiter plates (Nunc, 442587) in a final volume of 200 μl, using membrane preparations of CHO cells expressing recombinant human S1P1 receptor. Assay conditions are 20 mM Hepes (Fluka, 54461), 100 mM NaCl (Fluka, 71378), 5 mM MgCl2 (Fluka, 63064), 0.1% BSA (Calbiochem, 126609), 1 μM GDP (Sigma, G-7127), 2.5% DMSO (Fluka, 41644), […] ^35S-GTPγS (Amersham Biosciences, SJ1320). The pH is 7.4. Test compounds are dissolved and diluted in 100% DMSO and pre-incubated at room temperature for 30 min in 150 μl of the above assay buffer, in the absence of ^35S-GTPγS. After addition of 50 μl of ^35S-GTPγS, the assay is incubated for 1 h at rt. The assay is terminated by transfer of the reaction mixture to a Multiscreen plate (Millipore, MAHFC1H60) using a cell harvester from Packard Biosciences, and the plates are washed with ice-cold 10 mM Na2HPO4/NaH2PO4 (70%/30%), dried, sealed at the bottom and, after addition of 25 μl MicroScint20 (Packard Biosciences, order #6013621), sealed on the top. Membrane-bound ^35S-GTPγS is measured with a TopCount from Packard Biosciences.
EC50 is the concentration of agonist inducing 50% of the maximal specific ^35S-GTPγS binding. Specific binding is determined by subtracting non-specific binding from maximal binding. Maximal binding is the amount of cpm bound to the Multiscreen plate in the presence of 10 μM of S1P. Non-specific binding is the amount of binding in the absence of an agonist in the assay.

| EC50 [nM] | Structure (SMILES) |
| --- | --- |
| 2.7 | COc1cc(CC(C)C)nc(-c2nc(-c3cc(C)c(OC[C@@H](O)CNC(=O)CO)c(C)c3)no2)c1 [Example 10] |
| 4.7 | CCc1cc(-c2noc(-c3cc(C)c(CC(C)C)cn3)n2)cc(C)c1OC(CO)CO [Example 55, 2-{2-Ethyl-4-[5-(5-isobutyl-4-methyl-pyridin-2-yl)-[1,2,4]oxadiazol-3-yl]-6-methyl-phenoxy}-propane-1,3-diol] |
| 2.8 | CCC(CC)c1cc(OC)cc(-c2nc(-c3cc(C)c(OC[C@@H](O)CNC(=O)CO)c(C)c3)no2)n1 [Example 70, N—[(S)-3-(4-{5-[6-(1-ethyl-propyl)-4-methoxy-pyridin-2-yl]-[1,2,4]oxadiazol-3-yl}-2,6-dimethyl-phenoxy)-2-hydroxy-propyl]-2-hydroxy-acetamide] |
| 3.1 | CCc1cc(-c2noc(-c3cc(OC)cc(C(CC)CC)n3)n2)cc(C)c1OC[C@@H](O)CNC(=O)CO [Example 69, N—[(S)-3-(2-ethyl-4-{5-[6-(1-ethyl-propyl)-4-methoxy-pyridin-2-yl]-[1,2,4]oxadiazol-3-yl}-6-methyl-phenoxy)-2-hydroxy-propyl]-2-hydroxy-acetamide] |
| 11.2 | CCc1cc(-c2noc(-c3cc(C)c(CC(C)C)cn3)n2)cc(C)c1OC[C@@H](O)CNCCO [Example 58, 1-{2-Ethyl-4-[5-(5-isobutyl-4-methyl-pyridin-2-yl)-[1,2,4]oxadiazol-3-yl]-6-methyl-phenoxy}-3-((2S)-2-hydroxy-ethylamino)-propan-2-ol] |
| 2.3 | CCc1cc(-c2noc(-c3cc(C)c(CC(C)C)cn3)n2)cc(C)c1OC[C@@H](O)CNCCC(=O)O [Example 61, 3-((2S)-3-{2-Ethyl-4-[5-(5-isobutyl-4-methyl-pyridin-2-yl)-[1,2,4]oxadiazol-3-yl]-6-methyl-phenoxy}-2-hydroxy-propylamino)-propionic acid] |
| 8.8 | CCC(CC)c1cc(OC)cc(-c2nc(-c3cc(C)c(OC[C@@H](O)CNC(=O)CO)c(OC)c3)no2)n1 [Example 72, N—[(S)-3-(4-{5-[6-(1-ethyl-propyl)-4-methoxy-pyridin-2-yl]-[1,2,4]oxadiazol-3-yl}-2-methoxy-6-methyl-phenoxy)-2-hydroxy-propyl]-2-hydroxy-acetamide] |
| 9.4 | CCC(CC)c1cc(OC)cc(-c2nc(-c3cc(C)c(OC[C@@H](O)CO)c(Cl)c3)no2)n1 [Example 65, (S)-3-(2-chloro-4-{5-[6-(1-ethyl-propyl)-4-methoxy-pyridin-2-yl]-[1,2,4]oxadiazol-3-yl}-6-methyl-phenoxy)-propane-1,2-diol] |
| 5.1 | CCc1cc(-c2noc(-c3cc(C)c(CC(C)C)cn3)n2)cc(C)c1OCCNCCC(=O)O [Example 50, 3-(2-{2-Ethyl-4-[5-(5-isobutyl-4-methyl-pyridin-2-yl)-[1,2,4]oxadiazol-3-yl]-6-methyl-phenoxy}-ethylamino)-propionic acid] |
| 9.1 | CCc1cc(-c2noc(-c3cc(C)c(CC(C)C)cn3)n2)cc(C)c1OC[C@@H](O)CO [Example 34, (S)-3-{2-ethyl-4-[5-(5-isobutyl-4-methyl-pyridin-2-yl)-[1,2,4]oxadiazol-3-yl]-6-methyl-phenoxy}-propane-1,2-diol] |
| 2.3 | CCc1cc(-c2noc(-c3cc(OC)cc(CC(C)C)n3)n2)cc(C)c1OC[C@@H](O)CNC(=O)CO [Example 17, N—((S)-3-{2-ethyl-4-[5-(6-isobutyl-4-methoxy-pyridin-2-yl)-[1,2,4]oxadiazol-3-yl]-6-methyl-phenoxy}-2-hydroxy-propyl)-2-hydroxy-acetamide] |
| 9 | CCc1cc(-c2nc(-c3cc(C)c(CC(C)C)cn3)no2)cc(C)c1OC[C@@H](O)CNC(=O)CO [Example 74, N-((2S)-3-{2-Ethyl-4-[3-(5-isobutyl-4-methyl-pyridin-2-yl)-[1,2,4]oxadiazol-5-yl]-6-methyl-phenoxy}-2-hydroxy-propyl)-2-hydroxy-acetamide] |
| 8.8 | CCc1cc(-c2noc(-c3cc(C)c(CC(C)C)cn3)n2)cc(C)c1OCCNC(=O)CO [Example 51, N-(2-{2-Ethyl-4-[5-(5-isobutyl-4-methyl-pyridin-2-yl)-[1,2,4]oxadiazol-3-yl]-6-methyl-phenoxy}-ethyl)-2-hydroxy-acetamide] |
| 7.2 | CCc1cc(-c2noc(-c3cc(C)c(CC(C)C)cn3)n2)cc(C)c1OC[C@H](O)CO [Example 33, (R)-3-{2-ethyl-4-[5-(5-isobutyl-4-methyl-pyridin-2-yl)-[1,2,4]oxadiazol-3-yl]-6-methyl-phenoxy}-propane-1,2-diol] |
| 3.3 | CCc1cc(-c2noc(-c3cc(C)c(CC(C)C)cn3)n2)cc(C)c1CCC(=O)NCCC(=O)O [Example 40, 3-(3-{2-Ethyl-4-[5-(5-isobutyl-4-methyl-pyridin-2-yl)-[1,2,4]oxadiazol-3-yl]-6-methyl-phenyl}-propionylamino)-propionic acid] |
| 11.9 | CCc1cc(-c2noc(-c3cc(C)c(CC(C)C)cn3)n2)cc(C)c1OC[C@@H](O)CNS(=O)(=O)CC [Example 59, Ethanesulfonic acid ((2S)-3-{2-ethyl-4-[5-(5-isobutyl-4-methyl-pyridin-2-yl)-[1,2,4]oxadiazol-3-yl]-6-methyl-phenoxy}-2-hydroxy-propyl)-amide] |
| 2.2 | CCc1cc(-c2noc(-c3cc(C)cc(C(CC)CC)n3)n2)cc(C)c1OC[C@@H](O)CO [Example 62, (S)-3-(2-Ethyl-4-{5-[6-(1-ethyl-propyl)-4-methyl-pyridin-2-yl]-[1,2,4]oxadiazol-3-yl}-6-methyl-phenoxy)-propane-1,2-diol] |
| 0.8 | CCC(CC)c1cc(OC)cc(-c2nc(-c3cc(C)c(OC[C@@H](O)CNC(=O)CO)c(Cl)c3)no2)n1 [Example 71, N—[(S)-3-(2-chloro-4-{5-[6-(1-ethyl-propyl)-4-methoxy-pyridin-2-yl]-[1,2,4]oxadiazol-3-yl}-6-methyl-phenoxy)-2-hydroxy-propyl]-2-hydroxy-acetamide] |

Same assay, conditions: 35S-GTPγS binding, membranes of CHO cells expressing recombinant human S1P1 receptor

| EC50 [nM] | Structure (SMILES) |
| --- | --- |
| > 10000 | CCc1cc(-c2nnc(-c3cc(C)c(CC(C)C)cn3)o2)cc(C)c1OC[C@@H](O)CN [Example 43] |
